From ChEMBL document CHEMBL3045943, “Novel N-aryl(alkaryl)-2-[(3-R-2-oxo-2H-[1,2,4]triazino[2,3-c]quinazoline-6-yl)thio]acetamides: synthesis, cytotoxicity, anticancer activity, COMPARE analysis and docking” (2013)

How the values were obtained:
Assay type in all cases: functional
U-251 = assay: Cytotoxicity against Homo sapiens (human) U251 cells assessed as cell growth at 10 uM after 48 hr by SRB assay relative to control; details: U-251, 48 h, read-out: Activity
[1] = system: Photobacterium leiognathi; assay: Growth inhibition of Photobacterium leiognathi Sh1 assessed as bio-luminescence at 0.25 mg/ml after 10 min by acute action test relative to control; set-up: scale not given: the % may be the effect or the level left
[2] = system: Photobacterium leiognathi; assay: Growth inhibition of Photobacterium leiognathi Sh1 assessed as bio-luminescence at 0.025 mg/ml after 10 min by acute action test relative to control; set-up: scale not given: the % may be the effect or the level left
[3] = system: Photobacterium leiognathi; assay: Growth inhibition of Photobacterium leiognathi Sh1 assessed as bio-luminescence at 0.025 mg/ml after 16 to 18 hr by chronic action test relative to control; set-up: scale not given: the % may be the effect or the level left
[4] = system: Photobacterium leiognathi; assay: Growth inhibition of Photobacterium leiognathi Sh1 assessed as bio-luminescence at 0.25 mg/ml after 16 to 18 hr by chronic action test relative to control; set-up: scale not given: the % may be the effect or the level left
SNB-75 = assay: Cytotoxicity against Homo sapiens (human) SNB75 cells assessed as cell growth at 10 uM after 48 hr by SRB assay relative to control; details: SNB-75, 48 h, read-out: Activity
SNB-19 = assay: Cytotoxicity against Homo sapiens (human) SNB19 cells assessed as cell growth at 10 uM after 48 hr by SRB assay relative to control; details: SNB-19, 48 h, read-out: Activity
[5] = system: Photobacterium leiognathi; assay: Growth inhibition of Photobacterium leiognathi Sh1 assessed as bio-luminescence at 0.1 mg/ml after 10 min by acute action test relative to control; set-up: scale not given: the % may be the effect or the level left
[6] = system: Photobacterium leiognathi; assay: Growth inhibition of Photobacterium leiognathi Sh1 assessed as bio-luminescence at 0.1 mg/ml after 16 to 18 hr by chronic action test relative to control; set-up: scale not given: the % may be the effect or the level left

COc1ccc(-c2nn3c(SCC(=O)Nc4ccc(C)cc4)nc4ccccc4c3nc2=O)cc1
growth at 10 µM (U-251): 24.4% | Activity [1]: 146.7% | Activity [2]: 112.5% | Activity [3]: 69.8% | Activity [4]: 27.3% | growth at 10 µM (SNB-75): 55.9% | growth at 10 µM (SNB-19): 59% | Activity [5]: 120% | Activity [6]: 76.8%
